Experimental data from patent publication US12226424B2, “Target protein degradation compounds, their anti-tumor use, their intermediates and use of intermediates” (ShanghaiTech University, priority 2018, dated 2025).
Like-named read-outs stand apart in the source and are kept apart here.

Legend:
CDK4/6 protein [1] = assay: Western-blot determination of CDK4/6 protein degradation (DC50) in Jurkat cells; type: cell-based; details: read-out: DC50(nM)/Jurkat cell line
CDK4/6 protein [2] = assay: Western-blot determination of CDK4/6 protein degradation (DC50) in T-47D cells; type: cell-based, human; details: 24 h drug treatment, read-out: DC50(nM)/T-47D cell line
BRD2 [3] = target: T1, BRD2 (Homo sapiens, UniProt P25440); assay: Western-blot half-degradation concentration (DC50) / degradation of BRD2 in MV-4-11 cells; type: cell-based; details: 24 hours; for DC50: Western-blot, read-out: DC50 (nM)/MV-4-11 cell line BRD2 degradation
T1 sequence (P25440 whole entry): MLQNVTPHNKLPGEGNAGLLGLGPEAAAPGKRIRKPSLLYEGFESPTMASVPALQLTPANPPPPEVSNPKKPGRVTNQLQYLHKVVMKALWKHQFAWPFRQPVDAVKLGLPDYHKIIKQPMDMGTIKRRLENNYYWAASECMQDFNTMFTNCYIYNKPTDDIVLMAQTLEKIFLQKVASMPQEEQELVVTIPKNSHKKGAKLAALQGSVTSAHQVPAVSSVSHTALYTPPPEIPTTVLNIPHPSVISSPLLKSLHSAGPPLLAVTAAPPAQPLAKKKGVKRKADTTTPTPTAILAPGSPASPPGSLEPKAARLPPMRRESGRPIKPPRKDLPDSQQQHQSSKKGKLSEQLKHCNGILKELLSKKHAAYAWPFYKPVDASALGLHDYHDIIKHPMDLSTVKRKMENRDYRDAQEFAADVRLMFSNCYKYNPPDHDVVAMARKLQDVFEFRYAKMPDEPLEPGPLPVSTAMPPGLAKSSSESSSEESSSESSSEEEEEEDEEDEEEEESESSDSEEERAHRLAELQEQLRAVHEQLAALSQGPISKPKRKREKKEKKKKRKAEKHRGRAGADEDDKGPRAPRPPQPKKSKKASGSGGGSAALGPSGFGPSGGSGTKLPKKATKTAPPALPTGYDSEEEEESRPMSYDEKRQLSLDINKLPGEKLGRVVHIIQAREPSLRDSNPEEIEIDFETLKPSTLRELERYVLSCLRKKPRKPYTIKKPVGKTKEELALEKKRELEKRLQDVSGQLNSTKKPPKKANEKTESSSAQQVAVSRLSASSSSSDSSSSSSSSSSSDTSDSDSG
Excerpt: (§1) Western-Blot Determination of the Half-Degradation Concentration (DC50) of the PROTAD Compounds on the Target Proteins
(§2) The supernatant was aspirated as total cell protein extracted.

MDA-MB-453 cells = assay: Half inhibitory concentration (IC50) on BET-expressing tumor cells, CCK-8, MDA-MB-453; type: cell-based, human; details: 48/72 h, read-out: IC50 (nM)/MDA-MB-453 cell line
Description: (§3) BET-expressing cells MV-4-11 cells (human B granulocytic leukemia cells), MDA-MB-231 cells (human breast cancer cells), MDA-MB-468 cells (human breast cancer cells), MDA-MB-453 Cells (human breast cancer cells), MM1S cells (myeloma (immunoglobulin A lambda), B lymphoblasts) and SR cells (human large cell immunoblast lymphoma) were purchased from the American Type Culture Collection (ATCC).
(§4) The cells used in this present disclosure were cultured in a 37° C. incubator containing 5% CO2. The complete cell culture medium was RPMI 1640/IMDM/DMEM medium with 10% fetal bovine serum, and the final concentrations of penicillin and streptomycin were 100 U/mL, respectively. All cells were tested negative for mycoplasma with mycoplasma detection kit before the experiment.
(§5) Determination of the Half Inhibitory Concentration (IC50) of PROTAD Compounds on Tumor Cells
(§6) MV-411 cells, MM1S cells and SR cells were seeded in 100 μL IMDM/RPMI1640/DMEM complete medium at a density of 15000/10000 cells/well; MDA-MB-231 cells, MDA-MB-468 cells, and MDA-MB453 cells were seeded in 100 μL IMDM/RPMI1640/DMEM complete medium at a density of 3000/5000 cells/well, respectively. 100 μL of the inoculated cells were treated with 0.5 μL diluted PROTAD compounds of the present disclosure to be tested at 10 successively decreasing concentrations (starting at the highest concentration of 10 μM; 5-fold serial dilutions). After the cells were treated with the tested drugs 48/72 h, the cell viability was determined according to the CCK-8 reagent manual. The negative control was DMSO, and the positive control was a commercial inhibitor. After CCK-8 treatment for 2 h, the value of O.D.450 was measured using a microplate reader.

MM1S cells = assay: Half inhibitory concentration (IC50) on BET-expressing tumor cells, CCK-8, MM1S; type: cell-based; details: Homo sapiens, MM1.S, 48/72 h, read-out: IC50 (nM)/MM1S cell line
In short: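 Cells treated for 48/72 h with ten 5-fold dilutions from 10 μM top, DMSO as negative control. Viability read by CCK-8 (2 h, OD450) and IC50 derived from the concentration series; suspension lines seeded at 15000/10000 cells/well, MDA-MB lines at 3000/5000 cells/well.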

MDA-MB-468 cells = assay: Half inhibitory concentration (IC50) on BET-expressing tumor cells, CCK-8, MDA-MB-468; type: cell-based; details: Homo sapiens, 48/72 h, read-out: IC50 (nM)/MDA-MB-468 cell line
Description: as §3, §4, §5, §6

MV-4-11 cells = assay: Half inhibitory concentration (IC50) on BET-expressing tumor cells, CCK-8, MV-4-11; details: Homo sapiens, MV4-11, read-out: IC50 (nM)/MV-4-11 cell line, MV-4-11 cells, 48/72 h, CCK-8
MDA-MB-231 cells = assay: Half inhibitory concentration (IC50) on BET-expressing tumor cells, CCK-8, MDA-MB-231; type: cell-based; details: Homo sapiens, 48/72 h, read-out: IC50 (nM)/MDA-MB-231 cell line
Description: as §3, §4, §5, §6

SR cells = assay: Half inhibitory concentration (IC50) on BET-expressing tumor cells, CCK-8, SR; type: cell-based; details: Homo sapiens, 48/72 h, read-out: IC50 (nM)/SR cell line
Description: as §3, §4, §5, §6

BRD2 [4] = target: T1, BRD2; assay: Western-blot detection of BRD2 protein degradation (FIGS. 16a-c); type: cell-based
BRD4 [5] = target: T2, BRD4 (Homo sapiens, UniProt O60885); assay: Western-blot detection of BRD4 protein degradation (FIGS. 16a-c); type: cell-based
BRD4 [6] = target: T2, BRD4; assay: Western-blot degradation of BRD4 in MV-4-11 cells; type: cell-based; details: 24 hours
Excerpt: as §1, §2

[7] = Homo sapiens, MDA-MB-453, MDA-MB-453 cells

DC50 (CDK4/6 protein [1]) [nM]	DC50 (CDK4/6 protein [2]) [nM]	IC50 (MDA-MB-453 cells; [7]) [nM]	IC50 (MDA-MB-453 cells; MDA-MB-453 cells) [nM]	IC50 (MM1S cells) [nM]	IC50 (MDA-MB-468 cells) [nM]	IC50 (MV-4-11 cells) [nM]	IC50 (MDA-MB-231 cells) [nM]	Compound	also measured
1 to 10	1 to 10	–	–	–	–	–	–	CC(=O)c1c(C)c2cnc(Nc3ccc(N4CCN(C(=O)CSc5cccc6c5C(=O)N(C5CCC(=O)NC5=O)C6=O)CC4)cn3)nc2n(C2CCCC2)c1=O (stereo not shown) [SIAIS151046, 4-((2-(4-(6-((6-acetyl-8-cyclopentyl-5-methyl-7-oxo-7,8-dihydropyrido[2,3-d]pyrimidin-2-yl)amino)pyridin-3-yl)piperazin-1-yl)-2-oxoethyl)thio)-2-(2,6-dioxopiperidin-3-yl)isoindoline-1,3-dione]	–
–	–	154	226	5.36	52.5 ± 24	6.2 ± 4.1	88 ± 38	Cc1sc2c(c1C)C(c1ccc(Cl)cc1)=N[C@@H](CC(=O)NCCCCSc1cccc3c1C(=O)N(C1CCC(=O)NC1=O)C3=O)c1nnc(C)n1-2 (stereo partly drawn) [SIAIS171037, 2-((S)-4-(4-chlorophenyl)-2,3,9-trimethyl-6H-thieno[3,2-f][1,2,4]triazolo[4,3-a][1,4]diazepin-6-yl)-N-(4-((2-(2,6-dioxopiperidin-3-yl)-1,3-dioxoisoindolin-4-yl)thio)butyl)acetamide]	DC50 (BRD2 [3]): < 0.4 nM
–	–	135	230	7.77	61 ± 8	6.2 ± 3	182 ± 89	Cc1sc2c(c1C)C(c1ccc(Cl)cc1)=N[C@@H](CC(=O)NCCCCCSc1cccc3c1C(=O)N(C1CCC(=O)NC1=O)C3=O)c1nnc(C)n1-2 (stereo partly drawn) [SIAIS171038, 2-((S)-4-(4-chlorophenyl)-2,3,9-trimethyl-6H-thieno[3,2-f][1,2,4]triazolo[4,3-a][1,4]diazepin-6-yl)-N-(5-((2-(2,6-dioxopiperidin-3-yl)-1,3-dioxoisoindolin-4-yl)thio)pentyl)acetamide]	DC50 (BRD2 [3]): < 0.4 nM
–	–	37.4	37.1	0.31	6.1 ± 0.4	0.08 ± 0.03	17.7 ± 7.6	Cc1sc2c(c1C)C(c1ccc(Cl)cc1)=N[C@@H](CC(=O)NCCCCCSc1cccc3c1CN(C1CCC(=O)NC1=O)C3=O)c1nnc(C)n1-2 (stereo partly drawn) [SIAIS171142, 2-((S)-4-(4-chlorophenyl)-2,3,9-trimethyl-6H-thieno[3,2-f][1,2,4]triazolo[4,3-a][1,4]diazepin-6-yl)-N-(5-((2-(2,6-dioxopiperidin-3-yl)-1-oxoisoindolin-4-yl)thio)pentyl)acetamide]	IC50 (SR cells): 2.42 nM
–	–	–	–	0.32	376 ± 55	0.3	313 ± 309	Cc1sc2c(c1C)C(c1ccc(Cl)cc1)=N[C@@H](CC(=O)NCCCCCCSc1cccc3c1CN(C1CCC(=O)NC1=O)C3=O)c1nnc(C)n1-2 (stereo partly drawn) [SIAIS171143, 2-((S)-4-(4-chlorophenyl)-2,3,9-trimethyl-6H-thieno[3,2-f][1,2,4]triazolo[4,3-a][1,4]diazepin-6-yl)-N-(6-((2-(2,6-dioxopiperidin-3-yl)-1-oxoisoindolin-4-yl)thio)hexyl)acetamide]	IC50 (SR cells): 1.48 nM
1 to 10	1 to 10	–	–	–	–	–	–	CC(=O)c1c(C)c2cnc(Nc3ccc(N4CCN(C(=O)CCCCCCSc5cccc6c5C(=O)N(C5CCC(=O)NC5=O)C6=O)CC4)cn3)nc2n(C2CCCC2)c1=O (stereo not shown) [SIAIS184090, 4-((7-(4-(6-((6-acetyl-8-cyclopentyl-5-methyl-7-oxo-7,8-dihydropyrido[2,3-d]pyrimidin-2-yl)amino)pyridin-3-yl)piperazin-1-yl)-7-oxoheptyl)thio)-2-(2,6-dioxopiperidin-3-yl)isoindoline-1,3-dione]	–
1 to 10	1 to 10	–	–	–	–	–	–	CC(=O)c1c(C)c2cnc(Nc3ccc(N4CCN(C(=O)COCCSc5cccc6c5C(=O)N(C5CCC(=O)NC5=O)C6=O)CC4)cn3)nc2n(C2CCCC2)c1=O (stereo not shown) [SIAIS184091, 4-((2-(2-(4-(6-((6-acetyl-8-cyclopentyl-5-methyl-7-oxo-7,8-dihydropyrido[2,3-d]pyrimidin-2-yl)amino)pyridin-3-yl)piperazin-1-yl)-2-oxoethoxy)ethyl)thio)-2-(2,6-dioxopiperidin-3-yl)isoindoline-1,3-dione]	–
< 1	< 0.1	–	–	–	–	–	–	CC(=O)c1c(C)c2cnc(Nc3ccc(N4CCN(C(=O)CCCCSc5cccc6c5CN(C5CCC(=O)NC5=O)C6=O)CC4)cn3)nc2n(C2CCCC2)c1=O (stereo not shown) [SIAIS184092, 3-(4-((5-(4-(6-((6-acetyl-8-cyclopentyl-5-methyl-7-oxo-7,8-dihydropyrido[2,3-d]pyrimidin-2-yl)amino)pyridin-3-yl)piperazin-1-yl)-5-oxopentyl)thio)-1-oxoisoindolin-2-yl)piperidine-2,6-dione]	–
–	–	–	–	–	–	–	–	Cc1sc2c(c1C)C(c1ccc(Cl)cc1)=N[C@@H](CC(=O)NCCCCCNc1cccc3c1CN(C1CCC(=O)NC1=O)C3=O)c1nnc(C)n1-2 (stereo partly drawn) [SIAIS213110, 2-((S)-4-(4-chlorophenyl)-2,3,9-trimethyl-6H-thieno[3,2-f][1,2,4]triazolo[4,3-a][1,4]diazepin-6-yl)-N-(5-((2-(2,6-dioxopiperidin-3-yl)-1-oxoisoindolin-4-yl)amino)pentyl)acetamide]	ability to degrade BRD2 protein (Western-blot, in words) (BRD2 [4]): significantly weaker ability to degrade; ability to degrade BRD4 protein (Western-blot, in words) (BRD4 [5]): significantly weaker ability to degrade; degradation of BRD2 protein (Western-blot) (BRD2 [3]): significantly weaker ability to degrade BRD2 and BRD4 proteins; degradation of BRD4 protein (Western-blot) (BRD4 [6]): significantly weaker ability to degrade BRD2 and BRD4 proteins
–	–	–	–	–	–	–	–	Cc1sc2c(c1C)C(c1ccc(Cl)cc1)=N[C@@H](CC(=O)NCCCCCOc1cccc3c1CN(C1CCC(=O)NC1=O)C3=O)c1nnc(C)n1-2 (stereo partly drawn) [SIAIS271066, 2-((S)-4-(4-chlorophenyl)-2,3,9-trimethyl-6H-thieno[3,2-f][1,2,4]triazolo[4,3-a][1,4]diazepin-6-yl)-N-(5-((2-(2,6-dioxopiperidin-3-yl)-1-oxoisoindolin-4-yl)oxy)pentyl)acetamide]	ability to degrade BRD2 protein (Western-blot, in words) (BRD2 [4]): significantly weaker ability to degrade; ability to degrade BRD4 protein (Western-blot, in words) (BRD4 [5]): significantly weaker ability to degrade; degradation of BRD2 protein (Western-blot) (BRD2 [3]): significantly weaker ability to degrade BRD2 and BRD4 proteins; degradation of BRD4 protein (Western-blot) (BRD4 [6]): significantly weaker ability to degrade BRD2 and BRD4 proteins

Compound	DC50 (CDK4/6 protein [1]) [nM]	DC50 (CDK4/6 protein [2]) [nM]	IC50 (MDA-MB-453 cells; [7]) [nM]	IC50 (MDA-MB-453 cells; MDA-MB-453 cells) [nM]	IC50 (MM1S cells) [nM]	IC50 (MDA-MB-468 cells) [nM]	IC50 (MV-4-11 cells) [nM]	IC50 (MDA-MB-231 cells) [nM]	also measured
Cc1sc2c(c1C)C(c1ccc(Cl)cc1)=N[C@@H](CC(=O)NCCCCSc1cccc3c1CN(C1CCC(=O)NC1=O)C3=O)c1nnc(C)n1-2 (stereo partly drawn) [SIAIS171141, 2-((S)-4-(4-chlorophenyl)-2,3,9-trimethyl-6H-thieno[3,2-f][1,2,4]triazolo[4,3-a][1,4]diazepin-6-yl)-N-(4-((2-(2,6-dioxopiperidin-3-yl)-1-oxoisoindolin-4-yl)thio)butyl)acetamide]	–	–	112	98	0.24	10 ± 2	0.25 ± 0.2	19.9 ± 9.2	IC50 (SR cells): 3.91 nM
